Assay results as given in US20050239656A1, “Pyridine compounds or salts thereof and herbicides containing the same” (priority 2002, published 2005).

system: velvetleaf; experiment: Test Example 2: soil surface treatment, upland pot test; type: in vivo, Abutilon theophrasti MEDIC.; details: active ingredient 500 g/ha, observed 20th to 28th day
Method in brief: (§1)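 A pre-emergence soil application: formulated compound at a predetermined active-ingredient dose, diluted in water to 1,500 L/ha, sprayed on upland soil a day after seeding in 1/170,000 ha pots; growth control rated visually, 0 (untreated level) to 100 (kill), at 20–28 days.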

| SMILES | Growth controlling degree (%) Velvetleaf |
| --- | --- |
| CCC(=O)N(C)C(c1cnccc1C(F)(F)F)C(C)C (stereo not shown) [I-163] | 90% |

system: corn; experiment: Test Example 1: foliage treatment, upland pot test; type: in vivo, Zea mays L.; details: crop, active ingredient 500 g/ha, observed 18th to 23rd day, 0 = non-treated, 100 = complete kill
Method in brief: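 Corn seeds were sown in upland field soil held in a 1/170,000 ha pot and grown to the 2.1 to 3.2 leaf stage. A wettable powder or emulsifiable concentrate of the test compound was diluted with water at 500 L/ha, given 0.1% (v/v) agricultural spreader, and sprayed onto the foliage with a small sprayer. Growth controlling degree (%) was scored visually 18th to 23rd days later, from 0 (non-treated) to 100 (complete kill).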

| SMILES | Growth controlling degree (%) Corn |
| --- | --- |
| CCC(=O)N(C)C(c1cnccc1C(F)(F)F)C(C)C (stereo not shown) [I-163] | 90% |

system: rice; experiment: Test Example 2: soil surface treatment, upland pot test; type: in vivo, Oryza sativa L.; details: active ingredient 500 g/ha, observed 20th to 28th day
Method in brief: as §1

| SMILES | Growth controlling degree (%) Rice |
| --- | --- |
| CCC(=O)N(C)C(c1cnccc1C(F)(F)F)C(C)C (stereo not shown) [I-163] | 50% |

system: barnyardgrass; experiment: Test Example 1: foliage treatment, upland pot test; type: in vivo, Echinochloa crus-galli L.; details: active ingredient 500 g/ha, observed 18th to 23rd day, 0 = non-treated, 100 = complete kill
Method in brief: (§2)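 Upland pot test, foliar. Soybean 0.1–0.4 / wheat 1.3–2.4 / rice 1.2–2.6 / barnyardgrass 1.3–2.8 leaf stage at spraying; 500 L/ha carrier, 0.1% (v/v) spreader. Visual % control, 0 untreated to 100 dead, days 18–23.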

| SMILES | Growth controlling degree (%) Barnyardgrass |
| --- | --- |
| CCC(=O)N(C)C(c1cnccc1C(F)(F)F)C(C)C (stereo not shown) [I-163] | 90% |

system: soybean; experiment: Test Example 2: soil surface treatment, upland pot test; type: in vivo, Glycine max Merr.; details: active ingredient 500 g/ha, observed 20th to 28th day
Method in brief: as §1

| SMILES | Growth controlling degree (%) Soyabean |
| --- | --- |
| CCC(=O)N(C)C(c1cnccc1C(F)(F)F)C(C)C (stereo not shown) [I-163] | 40% |

system: redroot pigweed; experiment: Test Example 1: foliage treatment, upland pot test; type: in vivo, Amaranthus retroflexus L.; details: active ingredient 500 g/ha, observed 18th to 23rd day, 0 = non-treated, 100 = complete kill

| SMILES | Growth controlling degree (%) Redroot pigweed |
| --- | --- |
| CCC(=O)N(C)C(c1cnccc1C(F)(F)F)C(C)C (stereo not shown) [I-163] | 80% |

system: crabgrass; experiment: Test Example 1: foliage treatment, upland pot test; type: in vivo, Digitaria sanguinalis L.; details: active ingredient 500 g/ha, observed 18th to 23rd day, 0 = non-treated, 100 = complete kill

| SMILES | Growth controlling degree (%) Crabgrass |
| --- | --- |
| CCC(=O)N(C)C(c1cnccc1C(F)(F)F)C(C)C (stereo not shown) [I-163] | 98% |

system: velvetleaf; experiment: Test Example 1: foliage treatment, upland pot test; type: in vivo, Abutilon theophrasti MEDIC.; details: active ingredient 500 g/ha, observed 18th to 23rd day, 0 = non-treated, 100 = complete kill

| SMILES | Growth controlling degree (%) Velvetleaf |
| --- | --- |
| CCC(=O)N(C)C(c1cnccc1C(F)(F)F)C(C)C (stereo not shown) [I-163] | 70% |

system: crabgrass; experiment: Test Example 2: soil surface treatment, upland pot test; type: in vivo, Digitaria sanguinalis L.; details: active ingredient 500 g/ha, observed 20th to 28th day
Method in brief: as §1

| SMILES | Growth controlling degree (%) Crabgrass |
| --- | --- |
| CCC(=O)N(C)C(c1cnccc1C(F)(F)F)C(C)C (stereo not shown) [I-163] | 100% |

system: soybean; experiment: Test Example 1: foliage treatment, upland pot test; type: in vivo, Glycine max Merr.; details: crop, active ingredient 500 g/ha, observed 18th to 23rd day, 0 = non-treated, 100 = complete kill
Method in brief: as §2

| SMILES | Growth controlling degree (%) Soybean |
| --- | --- |
| CCC(=O)N(C)C(c1cnccc1C(F)(F)F)C(C)C (stereo not shown) [I-163] | 80% |

system: green foxtail; experiment: Test Example 2: soil surface treatment, upland pot test; type: in vivo, Setaria viridis L.; details: active ingredient 500 g/ha, observed 20th to 28th day
Method in brief: as §1

| SMILES | Growth controlling degree (%) Green foxtail |
| --- | --- |
| CCC(=O)N(C)C(c1cnccc1C(F)(F)F)C(C)C (stereo not shown) [I-163] | 100% |

system: prickly sida; experiment: Test Example 1: foliage treatment, upland pot test; type: in vivo, Sida spinosa L.; details: active ingredient 500 g/ha, observed 18th to 23rd day, 0 = non-treated, 100 = complete kill

| SMILES | Growth controlling degree (%) Prickly sida |
| --- | --- |
| CCC(=O)N(C)C(c1cnccc1C(F)(F)F)C(C)C (stereo not shown) [I-163] | 80% |

system: barnyardgrass; experiment: Test Example 3: paddy pot test, application under submerged conditions; type: in vivo, Echinochloa crus-galli L.; details: active ingredient 250 g/ha; submerged application at 0.5 leaf stage; visually observed 14 days after application; 0 = non-treated, 100 = complete kill
Method in brief: (§3)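 Barnyardgrass and japanese bulrush sown in flooded paddy soil in greenhouse pots, japanese ribbon wapato tubers planted 1–2 days later; water depth kept at 3–4 cm. Diluted wettable powder or emulsifiable concentrate applied into water at 0.5-leaf or primary-leaf stage at set active-ingredient doses. Growth control scored visually at 14 days, 0 (untreated) to 100% (complete kill).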

| SMILES | Growth controlling degree (%) Barnyardgrass |
| --- | --- |
| CCC(=O)N(C)C(c1cnccc1C(F)(F)F)C(C)C (stereo not shown) [I-163] | 100% |

system: corn; experiment: Test Example 2: soil surface treatment, upland pot test; type: in vivo, Zea mays L.; details: active ingredient 500 g/ha, observed 20th to 28th day
Method in brief: as §1

| SMILES | Growth controlling degree (%) Corn |
| --- | --- |
| CCC(=O)N(C)C(c1cnccc1C(F)(F)F)C(C)C (stereo not shown) [I-163] | 60% |

system: redroot pigweed; experiment: as above; type: in vivo, Amaranthus retroflexus L.; details: active ingredient 500 g/ha, observed 20th to 28th day
Method in brief: as §1

| SMILES | Growth controlling degree (%) Redroot pigweed |
| --- | --- |
| CCC(=O)N(C)C(c1cnccc1C(F)(F)F)C(C)C (stereo not shown) [I-163] | 70% |

system: green foxtail; experiment: Test Example 1: foliage treatment, upland pot test; type: in vivo, Setaria viridis L.; details: active ingredient 500 g/ha, observed 18th to 23rd day, 0 = non-treated, 100 = complete kill

| SMILES | Growth controlling degree (%) Green foxtail |
| --- | --- |
| CCC(=O)N(C)C(c1cnccc1C(F)(F)F)C(C)C (stereo not shown) [I-163] | 90% |

system: rice (var. Nihonbare); experiment: Test Example 3: paddy pot test, transplanted rice; type: in vivo, Oryza sativa L.; details: active ingredient 250 g/ha, applied 4th day after transplantation, visually observed 21st day after application, 0 = non-treated, 100 = complete kill
Method in brief: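 Rice (var. Nihonbare) at 2 leaf stage transplanted 3 cm deep into puddled paddy soil under 3–4 cm flooding; on day 4 after transplanting, diluted wettable powder or emulsifiable concentrate applied by pipette under submerged conditions at a set active-ingredient dose. Growth scored visually 21 days after application, 0 (untreated) to 100 (complete kill) %.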

| SMILES | Growth controlling degree (%) Rice |
| --- | --- |
| CCC(=O)N(C)C(c1cnccc1C(F)(F)F)C(C)C (stereo not shown) [I-163] | 60% |

system: japanese bulrush; experiment: Test Example 3: paddy pot test, application under submerged conditions; type: in vivo, Scirpus juncoides; details: active ingredient 250 g/ha; submerged application at 0.5 leaf stage; visually observed 14 days after application; 0 = non-treated, 100 = complete kill
Method in brief: as §3

| SMILES | Growth controlling degree (%) Japanese bulrush |
| --- | --- |
| CCC(=O)N(C)C(c1cnccc1C(F)(F)F)C(C)C (stereo not shown) [I-163] | 99% |

system: prickly sida; experiment: Test Example 2: soil surface treatment, upland pot test; type: in vivo, Sida spinosa L.; details: active ingredient 500 g/ha, observed 20th to 28th day
Method in brief: as §1

| SMILES | Growth controlling degree (%) Prickly sida |
| --- | --- |
| CCC(=O)N(C)C(c1cnccc1C(F)(F)F)C(C)C (stereo not shown) [I-163] | 95% |

system: japanese ribbon wapato; experiment: Test Example 3: paddy pot test, application under submerged conditions; type: in vivo, Sagittaria pygniaea; details: active ingredient 250 g/ha; submerged application at primary leaf stage; visually observed 14 days after application; 0 = non-treated, 100 = complete kill
Method in brief: as §3

| SMILES | Growth controlling degree (%) Japanese ribbon wapato |
| --- | --- |
| CCC(=O)N(C)C(c1cnccc1C(F)(F)F)C(C)C (stereo not shown) [I-163] | 90% |

system: rice; experiment: Test Example 1: foliage treatment, upland pot test; type: in vivo, Oryza sativa L.; details: crop, active ingredient 500 g/ha, observed 18th to 23rd day, 0 = non-treated, 100 = complete kill
Method in brief: as §2

| SMILES | Growth controlling degree (%) Rice |
| --- | --- |
| CCC(=O)N(C)C(c1cnccc1C(F)(F)F)C(C)C (stereo not shown) [I-163] | 80% |

system: barnyardgrass; experiment: Test Example 2: soil surface treatment, upland pot test; type: in vivo, Echinochloa crus-galli L.; details: active ingredient 500 g/ha, observed 20th to 28th day
Method in brief: as §1

| SMILES | Growth controlling degree (%) Barnyardgrass |
| --- | --- |
| CCC(=O)N(C)C(c1cnccc1C(F)(F)F)C(C)C (stereo not shown) [I-163] | 100% |
